Key:
Aurora A kinase = target: T1, Aurora A kinase (Homo sapiens, UniProt O14965); assay: Aurora-A (human) kinase assay (Kemptide substrate); format: biochemical; conditions: pIC50 is -log(IC50, M); 15 μM ATP; read-out: Kinase Inhibition pIC50 Aurora A kinase (converted)
T1 construct: purchased
T1 sequence (O14965 1-403): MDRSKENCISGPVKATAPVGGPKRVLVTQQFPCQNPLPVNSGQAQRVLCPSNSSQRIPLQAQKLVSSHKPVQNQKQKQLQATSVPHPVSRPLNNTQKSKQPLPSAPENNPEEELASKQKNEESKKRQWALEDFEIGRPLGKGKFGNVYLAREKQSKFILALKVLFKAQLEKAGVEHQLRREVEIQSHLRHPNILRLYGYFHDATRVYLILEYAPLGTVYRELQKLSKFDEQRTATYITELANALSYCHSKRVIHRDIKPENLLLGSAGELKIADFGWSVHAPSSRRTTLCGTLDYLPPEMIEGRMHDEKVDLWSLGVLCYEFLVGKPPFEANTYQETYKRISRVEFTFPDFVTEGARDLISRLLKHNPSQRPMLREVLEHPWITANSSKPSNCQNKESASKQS
Procedure, shortened: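 Radiometric filter-binding assay: commercial aurora-A kinase (5-10 ng) with 200 μM Kemptide in MOPS/EDTA pH 7.0, started with 10 mM Mg acetate and 15 μM ATP plus [γ-33P]-ATP. Incubated 40 min at room temperature, stopped with phosphoric acid, incorporated 33P counted by scintillation.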

CDK2-cycline E = CDK2-cycline E (Homo sapiens, UniProt P24941); assay: Kinase assay (radioactive phosphate incorporation), CDK2-cyclin E; format: biochemical; conditions: read-out: Kinase Inhibition pIC50 CDK2-cycline E (converted)
Procedure, shortened: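 Recombinant active enzyme (2-4 μg) with suitable polypeptide substrate in 25 mM β-glycerophosphate, 20 mM MOPS, 5 mM EGTA, 1 mM DTT, 1 mM […], pH 7.4. Started with 15 mM MgCl2/100 μM ATP plus [γ-32P]-ATP, incubated at 30° C; 32P incorporation captured on filter plates and counted by scintillation.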

CDK9/cyclin T1 = CDK9/cyclin T1 (Homo sapiens, UniProt P50750); assay: CDK 9 assay (CTD peptide substrate); format: biochemical; conditions: read-out: Kinase Inhibition pIC50 CDK9-cyclin T1 (converted)
Chain of CDK9/cyclin T1 (P50750 whole entry): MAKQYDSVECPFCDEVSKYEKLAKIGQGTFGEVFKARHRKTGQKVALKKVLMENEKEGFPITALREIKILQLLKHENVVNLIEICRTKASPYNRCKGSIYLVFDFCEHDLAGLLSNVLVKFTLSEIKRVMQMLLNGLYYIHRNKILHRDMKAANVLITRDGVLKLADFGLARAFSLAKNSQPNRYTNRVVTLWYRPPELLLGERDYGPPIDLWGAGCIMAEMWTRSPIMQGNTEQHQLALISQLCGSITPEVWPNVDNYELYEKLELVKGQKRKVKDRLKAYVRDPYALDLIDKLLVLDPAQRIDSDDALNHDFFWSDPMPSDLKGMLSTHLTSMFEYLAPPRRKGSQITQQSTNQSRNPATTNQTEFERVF
Chain of CDK9/cyclin T1 (O60563 whole entry partner): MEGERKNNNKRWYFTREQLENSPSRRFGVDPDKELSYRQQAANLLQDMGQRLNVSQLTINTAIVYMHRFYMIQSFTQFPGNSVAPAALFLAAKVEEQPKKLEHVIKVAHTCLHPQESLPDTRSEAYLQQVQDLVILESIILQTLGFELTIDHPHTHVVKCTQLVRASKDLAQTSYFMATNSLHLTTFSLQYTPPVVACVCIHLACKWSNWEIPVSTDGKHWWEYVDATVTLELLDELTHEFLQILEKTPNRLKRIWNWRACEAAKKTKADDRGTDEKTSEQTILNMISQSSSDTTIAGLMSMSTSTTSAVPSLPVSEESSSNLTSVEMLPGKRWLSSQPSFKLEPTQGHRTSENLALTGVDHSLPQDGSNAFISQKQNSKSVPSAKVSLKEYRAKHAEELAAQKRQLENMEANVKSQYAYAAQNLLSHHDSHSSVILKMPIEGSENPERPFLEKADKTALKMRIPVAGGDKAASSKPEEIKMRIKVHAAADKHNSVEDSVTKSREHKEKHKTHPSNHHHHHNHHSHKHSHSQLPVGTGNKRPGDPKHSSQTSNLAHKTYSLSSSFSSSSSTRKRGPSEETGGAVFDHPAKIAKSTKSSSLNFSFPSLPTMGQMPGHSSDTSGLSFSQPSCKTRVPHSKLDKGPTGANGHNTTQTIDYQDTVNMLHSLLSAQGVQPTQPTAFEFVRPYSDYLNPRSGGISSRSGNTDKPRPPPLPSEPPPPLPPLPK
Description: (§1) Kinase assays. The compounds of the invention above were investigated for their ability to inhibit the enzymatic activity of various protein kinases (Table 2). This was achieved by measurement of incorporation of radioactive phosphate from ATP into appropriate polypeptide substrates. Recombinant protein kinases and kinase complexes were produced or obtained commercially. Assays were performed using 96-well plates and appropriate assay buffers (typically 25 mM β-glycerophosphate, 20 mM MOPS, 5 mM EGTA, 1 mM DTT, 1 mM […], pH 7.4), into which were added 2-4 μg of active enzyme with appropriate substrates. The reactions were initiated by addition of Mg/ATP mix (15 mM MgCl2+100 μM ATP with 30-50 kBq per well of [γ-^32P]-ATP) and mixtures incubated as required at 30° C. Reactions were stopped on ice, followed by filtration through p81 filterplates or GF/C filterplates (Whatman Polyfiltronics, Kent, UK). After washing 3 times with 75 mM aq orthophosphoric acid, plates were dried, scintillant added and incorporated radioactivity measured in a scintillation counter (TopCount, Packard Instruments, Pangbourne, Berks, UK). Compounds for kinase assay were made up as 10 mM stocks in DMSO and diluted into 10% DMSO in assay buffer.
(§2) CDK 7 and 9 assays. CTD peptide substrate (biotinyl-Abx-(Tyr-Ser-Pro-Thr-Ser-Pro-Ser)4-NH2; 1-2 mg/mL) and recombinant human CDK7/cyclin H, CDK9/cyclin T1, or CDK9/cyclin K (0.5-2 μg) were incubated for 45 min at 30° C. in the presence of varying amounts of test compound in 20 mM MOPS pH 7.2, 25 mM β-glycerophosphate, 5 mM EGTA, 1 mM DTT, 1 mM sodium vanadate, 15 mM MgCl2, and 100 μM ATP (containing a trace amount of ^32PγATP) in a total volume of 25 μL in a 96-well microtiter plate. The reaction was stopped by placing the plate on ice for 2 min. Avidin (50 μg) was added to each well, and the plate was incubated at room temp for 30 min. The samples were transferred to a 96-well P81 filter plate, and washed (4×200 μL per well) with 75 mM phosphoric acid. Microscint 40 scintillation liquid (50 μL) was added to each well, and the amount of ^32P incorporation for each sample was measured using a Packard Topcount microplate scintillation counter.

CDK7/cyclin H = CDK7/cyclin H (Homo sapiens, UniProt P50613); assay: CDK 7 assay (CTD peptide substrate); format: biochemical; conditions: read-out: Kinase Inhibition pIC50 CDK7-cyclin H (converted)
Chain of CDK7/cyclin H (P50613 whole entry): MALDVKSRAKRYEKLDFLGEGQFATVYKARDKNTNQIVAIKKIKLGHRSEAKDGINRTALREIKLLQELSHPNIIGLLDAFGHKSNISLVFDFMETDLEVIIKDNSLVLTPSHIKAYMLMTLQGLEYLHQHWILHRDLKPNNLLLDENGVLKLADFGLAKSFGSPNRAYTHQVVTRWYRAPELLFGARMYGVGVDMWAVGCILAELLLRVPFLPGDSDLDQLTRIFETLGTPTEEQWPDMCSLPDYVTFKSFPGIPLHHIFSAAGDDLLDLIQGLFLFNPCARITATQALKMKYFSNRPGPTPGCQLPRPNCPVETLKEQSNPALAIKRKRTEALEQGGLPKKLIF
Chain of CDK7/cyclin H (P51946 whole entry partner): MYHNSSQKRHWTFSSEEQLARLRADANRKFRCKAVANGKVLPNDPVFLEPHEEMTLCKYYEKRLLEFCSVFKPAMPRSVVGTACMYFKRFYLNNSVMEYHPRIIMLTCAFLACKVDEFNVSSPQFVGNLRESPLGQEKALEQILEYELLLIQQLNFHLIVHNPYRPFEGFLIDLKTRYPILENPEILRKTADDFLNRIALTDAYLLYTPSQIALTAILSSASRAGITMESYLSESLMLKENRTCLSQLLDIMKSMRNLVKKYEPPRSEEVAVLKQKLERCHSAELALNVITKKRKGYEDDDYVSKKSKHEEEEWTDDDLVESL
Description: as §1, §2

[1] = target: T2, Flt3 (FMS-like tyrosine kinase-3) (Homo sapiens, UniProt P36888); assay: Kinase assay (radioactive phosphate incorporation), Flt3; format: biochemical; conditions: pIC50 is -log(IC50, M), read-out: Kinase Inhibition pIC50 Flt3 (converted)
T2 sequence (P36888 27-993): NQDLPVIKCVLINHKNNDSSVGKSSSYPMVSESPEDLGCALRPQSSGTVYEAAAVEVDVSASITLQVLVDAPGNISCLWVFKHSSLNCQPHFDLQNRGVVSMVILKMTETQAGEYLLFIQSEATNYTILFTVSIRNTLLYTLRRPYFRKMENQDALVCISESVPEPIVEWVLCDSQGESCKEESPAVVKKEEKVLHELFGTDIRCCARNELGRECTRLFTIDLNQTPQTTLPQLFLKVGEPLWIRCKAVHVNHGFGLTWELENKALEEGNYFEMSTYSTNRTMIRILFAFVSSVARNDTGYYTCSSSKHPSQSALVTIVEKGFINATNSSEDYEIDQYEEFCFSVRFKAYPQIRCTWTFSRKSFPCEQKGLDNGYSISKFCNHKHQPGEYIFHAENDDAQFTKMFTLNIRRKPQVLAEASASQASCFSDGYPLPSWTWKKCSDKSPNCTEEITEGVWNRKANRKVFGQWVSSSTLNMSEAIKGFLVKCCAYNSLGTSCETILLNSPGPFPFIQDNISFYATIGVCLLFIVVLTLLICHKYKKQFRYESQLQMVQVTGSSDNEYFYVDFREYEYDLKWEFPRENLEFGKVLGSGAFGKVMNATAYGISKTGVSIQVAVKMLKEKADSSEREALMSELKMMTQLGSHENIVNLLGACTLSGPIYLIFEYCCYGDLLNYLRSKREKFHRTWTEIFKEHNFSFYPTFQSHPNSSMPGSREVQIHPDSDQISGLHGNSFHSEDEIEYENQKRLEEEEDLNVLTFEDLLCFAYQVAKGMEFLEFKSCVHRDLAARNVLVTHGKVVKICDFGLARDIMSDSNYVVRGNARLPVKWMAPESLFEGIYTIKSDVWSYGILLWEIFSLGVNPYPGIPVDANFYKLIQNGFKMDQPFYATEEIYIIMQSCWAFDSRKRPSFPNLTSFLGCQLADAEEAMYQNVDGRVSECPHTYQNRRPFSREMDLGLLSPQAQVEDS
Description: as §1

Compound | IC50 (Aurora A kinase) [nM] | melting point [°C] | further results
CCc1cc(-c2nc(C)c(-c3ccnc(Nc4ccc(S(=O)(=O)NCCO)cc4)n3)s2)ccn1 [Compound 102, 4-{4-[2-(2-Ethyl-pyridin-4-yl)-4-methyl-thiazol-5-yl]-pyrimidin-2-ylamino}-N-(2-hydroxy-ethyl)-benzenesulfonamide] | 63.1 | 233 to 234 | 
CCc1cc(-c2nc(C)c(-c3ccnc(Nc4ccc(CNC(C)=O)cc4)n3)s2)ccn1 [Compound 104, N-(4-{4-[2-(2-Ethyl-pyridin-4-yl)-4-methyl-thiazol-5-yl]-pyrimidin-2-ylamino}-benzyl)-acetamide] | 63.1 | 224 to 225 | 
CC(=O)NCc1cccc(Nc2nccc(-c3sc(-c4ccc(C)nc4)nc3C)n2)c1 [Compound 108, N-(3-{4-[4-Methyl-2-(6-methyl-pyridin-3-yl)-thiazol-5-yl]-pyrimidin-2-ylamino}-benzyl)-acetamide] | 2510 | 227 to 229 | 
CC(=O)NCc1cccc(Nc2nccc(-c3sc(-c4ncc(C(F)(F)F)cc4Cl)nc3C)n2)c1 [Compound 109, N-(3-{4-[2-(3-Chloro-5-trifluoromethyl-pyridin-2-yl)-4-methyl-thiazol-5-yl]-pyrimidin-2-ylamino}-benzyl)-acetamide] | 631 | 217 to 218 | 
COCCNS(=O)(=O)c1ccc(Nc2nccc(-c3sc(-c4cccnc4)nc3C)n2)cc1 [Compound 110, N-(2-Methoxy-ethyl)-4-[4-(4-methyl-2-pyridin-3-yl-thiazol-5-yl)-pyrimidin-2-ylamino]-benzenesulfonamide] | 1000 | 252 to 254 | 
Cc1nc(NCc2ccccc2)sc1-c1ccnc(Nc2ccc(N3CCOCC3)cc2)n1 [Compound 117, [4-(2-Benzylamino-4-methyl-thiazol-5-yl)-pyrimidin-2-yl]-(4-morpholin-4-yl-phenyl)-amine] |  | 180 to 183 | 
CC(=O)NCc1cccc(Nc2nccc(-c3sc(NCc4ccccc4)nc3C)n2)c1 [Compound 118, N-{3-[4-(2-Benzylamino-4-methyl-thiazol-5-yl)-pyrimidin-2-ylamino]-benzyl}-acetamide] | 501 | 181 to 183 | 
Cc1nc(N(C)c2cc(Cl)cc(Cl)c2)sc1-c1ccnc(Nc2ccc(N3CCOCC3)cc2)n1 [Compound 123, (4-{2-[(3,5-Dichloro-phenyl)-methyl-amino]-4-methyl-thiazol-5-yl}-pyrimidin-2-yl)-(4-morpholin-4-yl-phenyl)-amine] | 50.1 | 216 to 218 | 
Cc1nc(N(C)c2ccc(Cl)cc2)sc1-c1ccnc(Nc2ccc(N3CCOCC3)cc2)n1 [Compound 124, (4-{2-[(4-Chloro-phenyl)-methyl-amino]-4-methyl-thiazol-5-yl}-pyrimidin-2-yl)-(4-morpholin-4-yl-phenyl)-amine] | 200 | 245 to 246 | 
Cc1nc(-c2cccnc2)sc1-c1ccnc(Nc2ccc(N3CCOCC3)c(Cl)c2)n1 [Compound 127, (3-Chloro-4-morpholin-4-yl-phenyl)-[4-(4-methyl-2-pyridin-3-yl-thiazol-5-yl)-pyrimidin-2-yl]-amine] |  | 230 to 231 | 
CCNc1nc(C)c(-c2ccnc(Nc3cc(Cl)c(N4CCOCC4)c(Cl)c3)n2)s1 [Compound 133, (3,5-Dichloro-4-morpholin-4-yl-phenyl)-[4-(2-ethylamino-4-methyl-thiazol-5-yl)-pyrimidin-2-yl]-amine] |  | > 300 | 
Cc1nc(-c2nc(C)c(-c3ccnc(Nc4cc(Cl)c(N5CCOCC5)c(Cl)c4)n3)s2)cs1 [Compound 137, (3,5-Dichloro-4-morpholin-4-yl-phenyl)-[4-(4,2′-dimethyl-[2,4′]bithiazolyl-5-yl)-pyrimidin-2-yl]-amine] |  | > 300 | 
COc1cc(Nc2nccc(-c3sc(-c4cccnc4)nc3C)n2)cc(OC)c1 [Compound 155, (3,5-Dimethoxy-phenyl)-[4-(4-methyl-2-pyridin-3-yl-thiazol-5-yl)-pyrimidin-2-yl]-amine] |  | 229 to 230 | 
Cc1nc(NCCc2ccccc2)sc1-c1ccnc(Nc2ccc(N3CCN(Cc4ccccc4)CC3)cc2)n1 [Compound 166, [4-(4-Benzyl-piperazin-1-yl)-phenyl]-[4-(4-methyl-2-phenethylamino-thiazol-5-yl)-pyrimidin-2-yl]-amine] |  | 191 to 192 | 
Cc1nc(Nc2ccccc2)sc1-c1ccnc(Nc2ccc(N3CCOCC3)cc2)n1 [Compound 167, [4-(4-Methyl-2-phenylamino-thiazol-5-yl)-pyrimidin-2-yl]-(4-morpholin-4-yl-phenyl)-amine] |  | 290 to 291 | 
COc1cc(Nc2nccc(-c3sc(Nc4ccccc4)nc3C)n2)cc(OC)c1 [Compound 171, (3,5-Dimethoxy-phenyl)-[4-(4-methyl-2-phenylamino-thiazol-5-yl)-pyrimidin-2-yl]-amine] |  | 191 to 194 | 
COc1cc(Nc2nccc(-c3sc(C)nc3C)n2)cc(OC)c1 [Compound 175, (3,5-Dimethoxy-phenyl)-[4-(2,4-dimethyl-thiazol-5-yl)-pyrimidin-2-yl]-amine] | 79.4 |  | IC50 (CDK2-cycline E): 1260 nM; IC50 (CDK9/cyclin T1): 1580 nM; IC50 (CDK7/cyclin H): 5010 nM; IC50 [1]: 39.8 nM
